{"source": "paper PMC3646888", "about": "(PLoS ONE, 2013)", "key": {"CYP2B1": {"target": "T1, CYP2B1 (Rattus norvegicus, UniProt P00176)", "T1 sequence (P00176 1-491)": "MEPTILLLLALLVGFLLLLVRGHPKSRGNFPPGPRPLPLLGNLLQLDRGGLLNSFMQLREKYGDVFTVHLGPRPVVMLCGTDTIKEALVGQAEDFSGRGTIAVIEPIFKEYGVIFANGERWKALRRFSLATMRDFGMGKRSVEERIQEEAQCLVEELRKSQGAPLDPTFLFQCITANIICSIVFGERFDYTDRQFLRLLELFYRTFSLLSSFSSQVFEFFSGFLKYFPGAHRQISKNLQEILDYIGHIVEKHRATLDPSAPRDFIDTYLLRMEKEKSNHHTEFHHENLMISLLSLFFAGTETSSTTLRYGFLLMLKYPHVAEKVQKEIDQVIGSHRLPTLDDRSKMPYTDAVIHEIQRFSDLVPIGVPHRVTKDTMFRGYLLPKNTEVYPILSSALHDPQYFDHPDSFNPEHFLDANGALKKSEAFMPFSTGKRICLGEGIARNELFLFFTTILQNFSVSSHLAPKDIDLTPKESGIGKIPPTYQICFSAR", "assay": "Fluorescence-based CYP assay, recombinant CYP2B1, substrate EFC", "type": "in vitro ADME", "method": "(§1) These assays were performed by methods similar to those described by VanAlstine and Hough, Stresser et al., Wulff et al., Henderson et al., and Crespi et al., with minor modifications. All incubations were performed in a final volume of 200 µL of 50 mM potassium phosphate buffer at pH 7.4 containing 1% acetonitrile. CYP inhibitor studies were performed according to the parameters of Table 1. Substrate concentrations were chosen to be near known Km values. As described in the references cited, two different NADPH regenerating systems were used depending on the substrates used (Table 1). Inhibitors were added to either “low” NADPH-regenerating system (final concentration of 8.1 µM NADP^+, 0.4 mM glucose-6-phosphate, 0.4 mM magnesium chloride, 0.2 U/mL glucose-6-phosphate dehydrogenase) or to “high” NADPH-regenerating system (final concentration of 1.3 mM NADP^+, 3.3 mM glucose-6-phosphate, 3.3 mM magnesium chloride, 0.4 U/mL glucose-6-phosphate dehydrogenase) in a total of 0.1 mL buffer. […] For assays utilizing “low” regenerating systems, product formation was monitored continuously by a Victor3 1420 Multilabel Plate Counter at the designated wavelengths (Table 1). […] Product formation was then measured at the designated wavelengths (Table 1). […]"}, "CYP2C11": {"target": "T2, CYP2C11 (Rattus norvegicus, UniProt P08683)", "T2 sequence (P08683 1-500)": "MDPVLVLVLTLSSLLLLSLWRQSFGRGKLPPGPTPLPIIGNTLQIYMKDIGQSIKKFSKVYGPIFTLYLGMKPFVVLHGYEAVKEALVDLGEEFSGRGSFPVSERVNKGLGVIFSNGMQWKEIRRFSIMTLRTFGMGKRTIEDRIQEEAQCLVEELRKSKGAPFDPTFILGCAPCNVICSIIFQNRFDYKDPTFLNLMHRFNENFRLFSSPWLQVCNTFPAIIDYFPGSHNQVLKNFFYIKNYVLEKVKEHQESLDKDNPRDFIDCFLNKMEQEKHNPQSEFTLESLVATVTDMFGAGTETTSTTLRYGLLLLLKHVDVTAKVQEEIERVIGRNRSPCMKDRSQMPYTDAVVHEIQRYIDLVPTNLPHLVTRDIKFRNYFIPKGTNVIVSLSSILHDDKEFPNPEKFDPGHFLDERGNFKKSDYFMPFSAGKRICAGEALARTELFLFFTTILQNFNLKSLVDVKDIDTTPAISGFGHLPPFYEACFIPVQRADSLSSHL", "assay": "Fluorescence-based CYP assay, recombinant CYP2C11, substrate DBF", "type": "in vitro ADME", "method": "as §1"}, "CYP3A4 [1]": {"target": "T3, CYP3A4 (Homo sapiens, UniProt P08684)", "T3 sequence (P08684 whole entry)": "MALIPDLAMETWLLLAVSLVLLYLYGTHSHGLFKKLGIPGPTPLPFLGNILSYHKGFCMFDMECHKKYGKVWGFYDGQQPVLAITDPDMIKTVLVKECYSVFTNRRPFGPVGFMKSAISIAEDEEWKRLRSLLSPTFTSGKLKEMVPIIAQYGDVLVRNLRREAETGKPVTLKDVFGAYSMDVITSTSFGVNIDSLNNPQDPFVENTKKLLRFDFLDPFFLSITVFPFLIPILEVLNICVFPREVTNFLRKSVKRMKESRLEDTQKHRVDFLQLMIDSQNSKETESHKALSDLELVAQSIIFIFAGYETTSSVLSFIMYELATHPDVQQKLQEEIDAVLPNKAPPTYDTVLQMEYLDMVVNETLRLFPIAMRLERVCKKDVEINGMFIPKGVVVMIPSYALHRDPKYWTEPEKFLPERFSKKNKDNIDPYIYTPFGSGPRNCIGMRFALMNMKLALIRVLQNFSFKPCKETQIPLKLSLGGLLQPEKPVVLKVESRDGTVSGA", "design": "method as in PMID 10884437", "conditions": "10 µM; cited from earlier work"}, "CYP19A1h": {"target": "T4, CYP19A1h (Homo sapiens, UniProt P11511)", "T4 sequence (P11511 1-503)": "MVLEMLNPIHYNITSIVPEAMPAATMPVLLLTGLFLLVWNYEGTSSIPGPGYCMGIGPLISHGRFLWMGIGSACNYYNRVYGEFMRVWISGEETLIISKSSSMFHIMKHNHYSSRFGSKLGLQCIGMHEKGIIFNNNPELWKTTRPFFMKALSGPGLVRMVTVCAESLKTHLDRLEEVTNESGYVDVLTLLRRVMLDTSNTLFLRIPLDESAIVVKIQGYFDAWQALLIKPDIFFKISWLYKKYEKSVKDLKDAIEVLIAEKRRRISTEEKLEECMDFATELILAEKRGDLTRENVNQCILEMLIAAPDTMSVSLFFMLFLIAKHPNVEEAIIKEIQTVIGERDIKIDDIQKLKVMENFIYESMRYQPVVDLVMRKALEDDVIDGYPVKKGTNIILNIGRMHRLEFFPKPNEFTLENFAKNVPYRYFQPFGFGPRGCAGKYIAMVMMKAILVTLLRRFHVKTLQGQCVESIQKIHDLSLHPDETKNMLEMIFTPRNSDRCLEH", "assay": "Fluorescence-based CYP assay, recombinant CYP19A1h, substrate DBF", "type": "in vitro ADME", "method": "(§2) These assays were performed by methods similar to those described by VanAlstine and Hough, Stresser et al., Wulff et al., Henderson et al., and Crespi et al., with minor modifications. All incubations were performed in a final volume of 200 µL of 50 mM potassium phosphate buffer at pH 7.4 containing 1% acetonitrile. CYP inhibitor studies were performed according to the parameters of Table 1. Substrate concentrations were chosen to be near known Km values. As described in the references cited, two different NADPH regenerating systems were used depending on the substrates used (Table 1). […] Samples were pre-incubated at 37°C for the designated times, and the reactions were initiated with the addition of a substrate and enzyme mixtures (Table 1). […] For the assays utilizing the “high” regenerating system, enzyme reactions were terminated at the designated time by the addition of 75 µL of 2N NaOH, followed by a 2 h post-incubation at 37°C. Product formation was then measured at the designated wavelengths (Table 1). For the “low” regenerating system assays, blanks and standards were prepared in 0.1 mL buffer without the regenerating system. For the “high” regenerating system assays, blanks and standards containing 0.1 mL of buffer received 75 µL of 2N NaOH following pre-incubation."}, "CYP3A4 [2]": {"target": "T3, CYP3A4", "assay": "Fluorescence-based CYP3A4 assay with BFC as substrate", "type": "in vitro ADME", "method": "as §2"}}, "note": "Entries after “also recorded” stand apart in the source; their conditions may differ."}
{"smiles": "Clc1ccccc1C(c1ccccc1)(c1ccccc1)n1ccnc1", "note": "[Clotrimazole]", "values": [{"measurement": "Inhibition of CYP2B1 (in words)", "setting": "CYP2B1; positive control", "value": "potent inhibitor"}, {"measurement": "Inhibition of CYP2C11 (in words)", "setting": "CYP2C11; positive control", "value": "potent inhibitor"}]}
{"smiles": "Clc1ccccc1C(c1ccccc1)(c1ccccc1)n1cccn1", "note": "[TRAM-34, 1-[(2-chlorophenyl)diphenylmethyl]-1H-pyrazole]", "values": [{"measurement": "IC50", "setting": "CYP2B1", "value": 3, "unit": "µM"}, {"measurement": "Inhibition of CYP3A4 with BFC as substrate (in words)", "setting": "CYP3A4 [1]", "value": "did not inhibit"}, {"measurement": "IC50", "setting": "CYP2C11", "value": 12.6, "unit": "µM"}, {"measurement": "IC50", "setting": "CYP19A1h", "value": "> 80", "unit": "µM"}, {"measurement": "Inhibition of CYP19A1h (in words)", "setting": "CYP19A1h; up to 80 µM", "value": "little to no inhibition; also recorded: no inhibitory effects"}, {"measurement": "Effect on CYP3A4 activity with BFC (in words)", "setting": "CYP3A4 [2]; substrate BFC", "value": "concentration-dependent stimulation"}, {"measurement": "Magnitude of stimulation of CYP3A4 with BFC", "setting": "CYP3A4 [2]; substrate BFC 50 µM, maximum stimulation", "value": "~200", "unit": "%"}]}
